Measured values reported in patent US7629126B2, “PIM-3 kinase as a target for type 2 diabetes mellitus” (Sanofi-Aventis Deutschland GmbH, priority 2002, dated 2009).
Several values for one entry are separate records, joined by “and”; a condition that tells them apart may be missing. Equal entries are not always repeated.

Legend:
PIM-3 [1] = assay: Gene expression of PIM-3 in 3T3-L1 adipocytes treated with antidiabetic drugs (PPARγ agonists), Affymetrix array; type: cell-based, murine
Procedure: 3T3-L1 preadipocytes were grown at 37° C. in 10% CO2 in Dulbecco's modified Eagle's medium (DMEM) containing 1 g/l glucose and 10% fetal calf serum (FCS). For differentiation into mature adipocytes, confluent preadipocytes were cultured for four days in DMEM supplemented with 4.5 g/l glucose, 10% FCS, 50 μg/ml ascorbic acid, 1 μM biotin, 17 μM pantothenic acid (=basal medium), 500 μM 3-isobutylmethylxanthine, 0.25 μM dexamethasone and 1 μg/ml human recombinant insulin. During the four day treatment the medium was changed once.
Differentiated 3T3-L1 cells were maintained in basal medium for one additional day and subsequently kept in serum-free basal medium for four hours. Then, PPARγ agonists diluted in basal medium were added to the adipocytes as described below centrations and conditions see table 5):
RNA was isolated using the TRIzol reagent (Life Technologies, Karlsruhe, Germany) and treated with DNase I by applying the DNA-free kit (Ambion, Austin, Tex., US).
Further purification of the RNA was achieved using the RNeasy mini kit (Qiagen, Hilden, Germany) and quality/quantity control was done with the 2100Bioanalyzer (Agilent, Böblingen, Germany). 10 μg of total RNA was converted into biotinylated cRNA according to the GeneChip expression analysis technical manual (Affymetrix, Santa Clara, Calif., US). Briefly, first and second strand synthesis was performed by applying the SuperScript double stranded cDNA synthesis kit (Life Technologies, Kardsruhe, Germany) and biotin labeled cRNA was produced with the BioArray RNA transcript labeling kit (Enzo Diagnostics, Framingdale, N.Y., US). 10 μg of cRNA was fragmented by heat, added to the GeneChip eukaryotic hybridization control solution (Affymetrix) and hybridized to a GeneChip MG-U74Av2 array (Affymetrix) by rotating for 16 hours at 45° C. Washing, staining and scanning of the array was carried outwith standard procedures using the hardware provided by Affymetrix. Raw data was analyzed by applying the microarray suite version 4.0.1 software (Affymetrix, see above).
The entire experiment was repeated twice to provide three biological replicates.
Data analysis including the estimation of fold changes was performed as described above. Fold change values for PIM-3 were obtained by comparing the compound treated samples against the untreated controls for each time point.

Pim-3 [2] = assay: Gene expression of Pim-3 in epididymal adipose tissue of ZDF rats treated with anti-diabetic drugs (PPARγ agonists); type: in vivo, rat; conditions: ZDF rats 20 weeks old, 3 mg/kg/day for 14 weeks, single animals Rosi 1-5 vs ZDF 1-5
Procedure: (§1) Zucker Diabetic Fatty (ZDF/Gmi.TM.−fa/fa) male rats as well as their lean fa+/fa− counterparts, aged 5 weeks (control 1-5, ZDF 1-10)were obtained from Genetic Models Inc. (Indianapolis, Ind.). The rats were given free access to food and water. The ZDF animals were split into 2 groups: group 1(animals ZDF 1-5) was not treated with any agent, whereas the second group was treated for 14 weeks with the antidiabetic drug Rosiglitazone (3 mg/kg/day, animals 6-10, Rosi 1-5,). For the collection of epididymal fat pads and also blood samples, in each case 5 animals were sacrificed by cervical dislocation. To monitor the success of the antidiabetic treatment, HbA1c as marker of long-term blood glucose levels were measured by standard methods after finishing of the experiment.
Collection of epididymal adipose tissue, RNA isolation and Affymetrix experiments were performed as described in experiment 1. Data analysis included the comparison of expression data of samples derived from the lean control animals versus the untreated ZDF rats as well as the comparison of the expression data derived from Rosiglitazone treated ZDF animals versus non-treated ZDF animals. […] Fold changes of gene expression for Pim-3 were analyzed using the Affymetlrix qualifier AF086624_S_AT.

ZDF rats = assay: HbA1c as marker of long-term blood glucose in ZDF rats treated with Rosiglitazone; type: in vivo, rat; conditions: ZDF rats treated 14 weeks, 3 mg/kg/day, single animals R1-R5
Procedure: as §1

[3] = 1 μM, 6 hours, Table 6a (replicate 1)
[4] = 1 μM, 6 hours, Table b (replicate 2)
[5] = 1 μM, 6 hours, Table c (replicate 3)
[6] = 1 μM, 24 hours, Table 6a (replicate 1)
[7] = 1 μM, 24 hours, Table b (replicate 2)
[8] = 1 μM, 24 hours, Table c (replicate 3)
[9] = 1 μM, 48 hours, Table 6a (replicate 1)
[10] = 1 μM, 48 hours, Table b (replicate 2)
[11] = 1 μM, 48 hours, Table c (replicate 3)
[12] = 5 μM, 6 hours, Table 6a (replicate 1)
[13] = 5 μM, 6 hours, Table b (replicate 2)
[14] = 5 μM, 6 hours, Table c (replicate 3)
[15] = 5 μM, 24 hours, Table 6a (replicate 1)
[16] = 5 μM, 24 hours, Table b (replicate 2)
[17] = 5 μM, 24 hours, Table c (replicate 3)
[18] = 5 μM, 48 hours, Table 6a (replicate 1)
[19] = 5 μM, 48 hours, Table b (replicate 2)
[20] = 5 μM, 48 hours, Table c (replicate 3)

Row | Compound | Fold change (PIM-3 gene expression vs DMSO control) (PIM-3 [1]; [3]) | Fold change (PIM-3 gene expression vs DMSO control) (PIM-3 [1]; [4]) | Fold change (PIM-3 gene expression vs DMSO control) (PIM-3 [1]; [5]) | Fold change (PIM-3 gene expression vs DMSO control) (PIM-3 [1]; [6]) | Fold change (PIM-3 gene expression vs DMSO control) (PIM-3 [1]; [7]) | Fold change (PIM-3 gene expression vs DMSO control) (PIM-3 [1]; [8]) | Fold change (PIM-3 gene expression vs DMSO control) (PIM-3 [1]; [9]) | Fold change (PIM-3 gene expression vs DMSO control) (PIM-3 [1]; [10]) | Fold change (PIM-3 gene expression vs DMSO control) (PIM-3 [1]; [11]) | Fold change (PIM-3 gene expression vs DMSO control) (PIM-3 [1]; [12]) | Fold change (PIM-3 gene expression vs DMSO control) (PIM-3 [1]; [13]) | Fold change (PIM-3 gene expression vs DMSO control) (PIM-3 [1]; [14]) | Fold change (PIM-3 gene expression vs DMSO control) (PIM-3 [1]; [15]) | Fold change (PIM-3 gene expression vs DMSO control) (PIM-3 [1]; [16]) | Fold change (PIM-3 gene expression vs DMSO control) (PIM-3 [1]; [17]) | Fold change (PIM-3 gene expression vs DMSO control) (PIM-3 [1]; [18]) | Fold change (PIM-3 gene expression vs DMSO control) (PIM-3 [1]; [19]) | Fold change (PIM-3 gene expression vs DMSO control) (PIM-3 [1]; [20]) | Fold change (Pim-3 gene expression, treated ZDF rats vs untreated ZDF rats) (Pim-3 [2]) | HbA1c (%) (ZDF rats)
1 | CN(CCOc1ccc(CC2SC(=O)NC2=O)cc1)c1ccccn1 (centres unmarked) [Rosi, rosiglitazone] | 2.1 | 1.5 | 2.0 | 2.9 | 2.2 | 1.9 | 2.6 | 2.0 | 2.1 | 2.2 | 1.3 | 2.2 | 2.9 | 1.9 | 1.3 | 2.6 | 1.9 | 2.0 | 1.6 (2×) and 1.3 and 1.5 and 1.4 | 4.30% and 4.27% and 4.14% (2×) and 4.13%
2 | Cc1c(C)c2c(c(C)c1O)CCC(C)(COc1ccc(CC3SC(=O)NC3=O)cc1)O2 (centres unmarked) [Tro, troglitazone] | 1.7 | 1.7 | 1.8 | 1.8 | 1.6 | 1.6 | 1.8 | 1.6 | 1.6 | 2.1 | 1.7 | 2.3 | 2.7 | 1.9 | 2.0 | 2.4 | 1.9 | 2.3 |  | 
